Patent US20100062997A1, “USE OF IDRAPARINUX FOR EXTENDED PROPHYLAXIS OF THROMBOEMBOLISM” (SANOFI-AVENTIS, priority 2008, published 2010)

Assays:
[1] = system: patients with confirmed, symptomatic DVT or PE treated for 6 months with a VKA or idraparinux; assay: Double-blind, placebo-controlled study of 6 months extended thromboprophylaxis: symptomatic recurrent VTE; type: in vivo
Protocol: (§1) A double-blind, placebo-controlled study evaluated patients who had completed 6 months of initial treatment for deep venous thrombosis (hereafter “DVT”) or pulmonary embolism (hereafter “PE”) and who were then randomly assigned to receive an additional 6 months of prophylaxis with idraparinux. The efficacy of this method of thromboprophylaxis was evaluated in these patients.
Eligible patients were those aged above or equal to 18 years, with confirmed, symptomatic DVT or PE and who had been treated for 6 months with a VKA (acenocoumarol or warfarin), either in previous van Gogh studies (see The van Gogh Investigators, N. Engl. J. Med., 2007, 357, 1094-104) or outside these studies, or with idraparinux (in van Gogh studies).
The diagnostic criteria for DVT were a calf trifurcation or a more proximal vein that were noncompressible on ultrasonography or an intraluminal filling defect on venography. For PE, the diagnostic criteria were an intraluminal filling defect in subsegmental or more proximal pulmonary arteries on spiral computed tomography (CT) or conventional pulmonary angiography, a high-probability finding on a ventilation-perfusion lung scan, or a nondiagnostic finding on a lung scan with objectively documented DVT (H. R. Büller et al., Ann. Intern. Med., 2004, 140, 867-73; The Matisse Investigators, N. Engl. J. Med., 2003, 349, 1695-702).
Patients were ineligible if they met one or more of the following criteria: an indication to continue anticoagulant therapy for the index DVT or PE beyond 6 months, other indications for prophylaxis with a VKA, pregnancy or breast-feeding, a creatinine clearance of less than 10 ml per minute, severe hepatic disease, bacterial endocarditis, active bleeding or a high risk of bleeding, uncontrolled hypertension (systolic blood pressure above 180 mm Hg or diastolic blood pressure above 110 mm Hg), or a life expectancy of less than 3 months.
Patients were randomized, with stratification according to study center and to the anticoagulant treatment received in the 6 months before randomization (idraparinux within the van Gogh studies or VKA within or outside the van Gogh studies). Randomization was to be performed not more than 1 hour before the administration of the first dose of the study drug.
(§2) Patients received a once-weekly subcutaneous dose of 2.5 mg of idraparinux or placebo with an identical appearance for 6 months (26 injections). In patients who had received idraparinux before randomization, the first dose of idraparinux or placebo was given 6 to 8 days after the last injection of the drug. In patients who had received a VKA before randomization, the first dose was given when the international normalized ratio (INR) was 3.0 or less. For patients with a creatinine clearance of less than 30 ml/min., the weekly idraparinux dose was 1.5 mg, with a first dose of 2.5 mg in patients who had received a VKA before randomization.
All patients were contacted after 1 week and at 3 and 6 months. […] At each contact, symptoms and signs of recurrent VTE were investigated.
All suspected outcome events were reviewed and classified by a central adjudication committee, whose members were unaware of study-group assignment.
The primary efficacy outcome was the incidence of symptomatic recurrence of VTE, defined as objectively documented recurrent PE, DVT or death attributed to PE. A diagnosis of recurrent VTE was accepted in the absence of an adequate objective test result if the investigator had treated the patient with therapeutic doses of heparin for more than 2 days or with a vena cava filter, thrombectomy or thrombolysis, or if recurrent VTE could not be ruled out. […]

[2] = system: patients with confirmed, symptomatic DVT or PE treated for 6 months with a VKA or idraparinux; assay: Same study, principal safety outcome: major bleeding; type: in vivo
Protocol: as §1, §2
The principal safety outcome was major bleeding. […]
Analysis of the primary safety outcome, the incidence of major bleeding at 6 months, was performed with the use of the Mantel-Haenszel test, stratified according to the previous treatment. The effect of initial, prerandomization treatment on efficacy and safety was also analyzed. […]

[3] = idraparinux group, month 6 after randomization, counted in most severe category

SMILES: CO[C@H]1O[C@H](COS(=O)(=O)O)[C@@H](O[C@@H]2O[C@@H](C(=O)O)[C@@H](O[C@H]3O[C@H](COS(=O)(=O)O)[C@@H](O[C@@H]4O[C@H](C(=O)O)[C@@H](O[C@H]5O[C@H](COS(=O)(=O)O)[C@@H](OC)[C@H](OC)[C@H]5OC)[C@H](OC)[C@H]4OC)[C@H](OS(=O)(=O)O)[C@H]3OS(=O)(=O)O)[C@H](OC)[C@H]2OC)[C@H](OS(=O)(=O)O)[C@H]1OS(=O)(=O)O [Idraparinux, idraparinux]
- symptomatic, objectively confirmed VTE (frequency of recurrent thromboembolism) ([1]; idraparinux group, 6 of 594 patients, during the 6 months of randomly assigned treatment): 1.0%
- recurrent VTE ([1]; idraparinux group, 7 patients, further 6-month observation period after end of the additional 6 months of thromboprophylaxis, P=0.21 vs placebo): 1.2%
- cumulative incidence of recurrent VTE (Kaplan-Meier) ([1]; idraparinux group, 1 year after randomization, P=0.002 vs placebo): 1.7%
- Type of recurrent event: DVT only [1, 3]: 3 number of patients
- Type of recurrent event: PE fatal [1, 3]: 2 number of patients
- Type of recurrent event: PE non fatal [1, 3]: 1 number of patients
- reduction in the relative risk of recurrent VTE ([1]; idraparinux vs placebo, 6 months, 95% CI 33.5 to 88.8, P=0.002): 72.7%
- Recurrent VTE, Odds Ratio (95% CI) ([1]; idraparinux vs placebo, month 6 after randomization, all patients, adjusted according to treatment history, P 0.002): 0.27 (0.11-0.66)
- Recurrent VTE, Odds Ratio (95% CI) ([1]; idraparinux vs placebo, treatment before randomization: VKA outside study, month 6, P 0.004): 0.09 (0.01-0.69)
- Recurrent VTE, Odds Ratio (95% CI) ([1]; idraparinux vs placebo, treatment before randomization: VKA within study, month 6, P 0.02): 0.20 (0.04-0.92)
- Recurrent VTE, Odds Ratio (95% CI) ([1]; idraparinux vs placebo, treatment received before randomization: VKA, month 6, P <0.001): 0.14 (0.04-0.48)
- Recurrent VTE, Odds Ratio (95% CI) ([1]; idraparinux vs placebo, treatment received before randomization: idraparinux, month 6, P 0.68): 1.58 (0.26-9.55)
- cumulative incidence of recurrent thromboembolism by treatment received before randomization (FIG. 1) ([1]; placebo group, entire year after randomization, 268 patients who had received idraparinux in the 6 months before randomization): lowest
- frequency of recurrence (6-month recurrence rate) after discontinuation ([1]; placebo group, substance = treatment received for 6 months before randomization): less than 1%
- major hemorrhage ([2]; idraparinux group, 6 months of treatment, placebo 0%, P<0.001): 1.9%
- major bleedings after discontinuation ([2]; placebo group, patients who first received idraparinux, 6 months): without major bleedings
